Drawing on PubChem BioAssay (NCI), this text covers TGI and GI50 for 16 molecules.

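Five compound concentrations were applied to cells in 96-well plates for 48 hours; endpoints were derived by simple linear interpolation of the resulting dose-response curve. GI50 is the concentration that inhibits growth by half. TGI: concentration producing complete growth inhibition.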 A value given as a limit tells only on which side of the number the result lay.

What all share (assay): DTP human tumour cell line panel, 48 h
Assay [1] concerns XF 498 CNS.
The subject of assay [2] is RXF-631 renal.
For assay [3], the system named is LXFL 529 NSCLC.
Assay [4] relates to DLD-1 colon.
Assay [5] concerns HOP-18 NSCLC.
Assay [6] has as its system DMS 273 small cell lung.
The subject of assay [7] is M19-MEL melanoma.
Assay [8] relates to SNB-78 CNS.
In assay [9] the test system is MDA-N.

`COc1ccc(S(=O)(=O)Nc2ccccc2C(=O)O)cc1`: the TGI in [1], in assay [2], in [3], in assay [4], in assay [5] and in [6] was greater than 100 µM throughout. For the same molecule, the TGI (commonly the concentration giving total growth inhibition) in assay [7] was greater than 100 µM.
Regarding `O=C1c2ccccc2C(Br)(Br)c2ccccc21`, the total growth inhibition concentration (TGI) in [8] was greater than 100 µM; in assay [1] it was 97.8 µM; in assay [3], greater than 31.6 µM; in [4], greater than 31.6 µM; in [5], greater than 31.6 µM; in assay [6] it was greater than 31.6 µM. In addition, the TGI in assay [7] is greater than 31.6 µM.
Consider `COc1cccc(-c2cc(=O)c3cc(OC)ccc3[nH]2)c1`, for which the concentration for total growth inhibition (TGI) in assay [9] stood at 0.131 µM.
As for `C#Cc1cccc(N2C(=O)CCC2=O)c1`, the concentration for total growth inhibition (TGI) in [8] amounted to 54.6 µM; in assay [1], 29 µM; in assay [2], 41.1 µM; in assay [9], 28.7 µM; in assay [3] it was 15.8 µM; in assay [4], 50.1 µM. Moreover, the TGI was found to be 34.3 µM in assay [5], 47.4 µM in [6] and 35.3 µM in assay [7].
`CC1CCC2(CC1)NN=c1s/c(=C\c3ccc(O)cc3)c(=O)n1N2` (centres undefined): the total growth inhibition concentration (TGI) in assay [8], in assay [1], in assay [3], in [4], in [5] and in assay [6] was greater than 100 µM throughout. Moreover, the TGI in assay [7] was greater than 100 µM.
Regarding `CC(=O)[O][Ga]([Cl])[O]C(C)=O`, the GI50 in assay [8], in assay [1], in assay [2], in [3], in assay [4] and in [5] was greater than 100 µM throughout. Moreover, the GI50 (usually the concentration that inhibits growth by half) was greater than 100 µM in assay [6] and 65.6 µM in [7]. Also, the TGI in assay [8], in [1], in [2], in assay [3], in assay [4] and in assay [5] was greater than 100 µM each time. In addition, the TGI in assay [6] and in assay [7] was greater than 100 µM throughout.
For `c1cc(N(CCn2cccn2)CCn2cccn2)cc(N(CCn2cccn2)CCn2cccn2)c1`, the concentration for total growth inhibition (TGI) in assay [8], in assay [1], in assay [2], in assay [3], in assay [4] and in assay [6] was greater than 100 µM each time. In addition, in assay [7], the TGI was greater than 100 µM.
As to `Oc1[nH]c2ccccc2c1N=Nc1ccccn1`, the total growth inhibition concentration (TGI) in assay [9] is greater than 100 µM.
As for `COc1ccc2c(CN3CCCCC3CO)cc3cc(OC)c(OC)cc3c2c1` (centres undefined), the total growth inhibition concentration (TGI) in assay [8] is 23.1 µM; in [1], 18.9 µM; in assay [3], 16.8 µM; in assay [4], greater than 100 µM; in assay [5] it was 38 µM; in assay [6], 11.7 µM. The molecule further registered a TGI in assay [7] of 11.4 µM.
As to `CCC[CH2][Sn]1([CH2]CCC)[O]CC(Cc2ccccc2)[O]1` (centres undefined), the GI50 was 2.61 µM in assay [8]; 1.74 µM in [1]; 1.57 µM in [2]; 1.15 µM in [3]; 2.81 µM in assay [6]; 2.83 µM in [7]. Besides, the TGI in assay [8] was 7.46 µM; in assay [1], 3.23 µM; in assay [2] it was 2.94 µM; in assay [3], 2.39 µM; in [6] it was 11 µM; in assay [7], 15.6 µM.
On to `CC(C(=O)c1ccccc1)C(c1ccccc1)N1CCOCC1` (centres undefined), for which the total growth inhibition concentration (TGI) in assay [9] is greater than 100 µM.
As to `CCCCCC(=O)C(C)C1=Nc2nnc(CCCCCCCc3nnc4n3C(=O)C(C(C)C(=O)CCCCC)=N4)n2C1=O` (centres undefined), the TGI in [1], in assay [2], in assay [3], in [4], in assay [5] and in [7] was greater than 100 µM throughout.
Take `CCOC(=O)C1N(S(=O)(=O)c2ccc(C)cc2)CCC12c1ccccc1N(C(C)=O)C2c1ccc(OC)c(OC)c1` (centres undefined): the total growth inhibition concentration (TGI) in assay [8], in assay [1], in [3], in assay [4], in assay [6] and in assay [7] was greater than 100 µM throughout.
For the molecule `COC(=O)/C=C1/CCC(C(=O)OC)N1` (centres undefined), the TGI in assay [8], in assay [1], in [3], in assay [4], in assay [6] and in [7] was greater than 100 µM each time.
Consider `Cc1ccc(NC(=O)C2C(=O)N(c3ccc(C)cc3)C(=O)/C2=N\NC(N)=S)cc1` (centres undefined), for which the TGI in assay [8], in [1], in assay [3], in assay [5], in [6] and in assay [7] was greater than 100 µM in each case.
As to `CC(=O)[CH-]C(C)=O.CC(=O)[CH-]C(C)=O.[CH2-]CCC.[CH2-]CCC.[Sn+4]`, the GI50 in assay [1] was 0.262 µM; in [3], 0.0493 µM; in assay [4], 0.475 µM; in assay [5] it was 0.569 µM; in assay [6], 1.19 µM. Moreover, the concentration for total growth inhibition (TGI) came to 1.07 µM in assay [1]; 0.185 µM in assay [3]; 1.58 µM in [4]; 1.88 µM in [5]; 2.53 µM in [6].
